Data: US10344261B2, “Immunomodulatory conjugates” (ASCEND BIOPHARMACEUTICALS LTD, priority 2011, dated 2019)
Where two headings read alike, the source gives them in different places.

How the values were obtained:
[1] = tested on: PBMC; assay: Cytokine release assay to measure IL-6 from PBMC (ELISA); format: cell-based, human; settings: for stimulation of IL-6 release by PBMC (in words): 6 and 24 hours; for EC50: Homo sapiens
Description: Fresh blood was collected from healthy volunteers and stored in Heparin Sodium tubes. 15 mL of blood was subsequently transferred to a 50 ml centrifugal tube and gently mixed with equal volume of DPBS. 10 ml Ficoll was slowly underlayed using pipette. The tube was centrifuged for 30 minutes at 800 g at RT without break. The buffy coat (containing PBMC) was aspirated at the interface between serum and Ficoll. The PBMC were washed with sufficient DPBS and centrifuged at 900 g to remove the Ficoll. RPMI-1640 Medium was added to the collected PBMC and the number of PBMC determined by counting. 1 ml of blood typically yields at least 1 million of PBMC.
PBMC were counted and cell densities adjusted. 100 μl of cells were added into the required number of wells such that the cell density for the IL-6 assay was 5,000/well. LD1-oxidized mannan conjugates for screening were serially diluted in DMSO. The LD1 solution was added to each well (final concentration of DMSO in assay was not more than 0.03%). The plates were incubated in a CO2 incubator at 37° C. and supernatants collected at 6 and 24 hours. At each time point of collection, the plates were centrifuged at 900 rpm for 4 minutes and the supernatents transferred to another 96 well plate. These were labelled and stored at −80° C. ELISA kits for IL-6 (Invitrogen) were used for quantitation of cytokine released. The ELISAs were performed as described in the manufacturer's instructions. The absorbances were measured by FlexStation 3. A standard curve for each cytokine was drawn each time for analyzing the data.
The Loxorubine (LOX) derivative, LD1, was synthesised and conjugated to oxidized mannan (LD1-OM) as described above. The LOX derivative, LD1, incorporates a hydrazide linkage for conjugation to aldehyde residues of oxidized mannan and an ester linkage between the linker and the LOX. LD1 oxidized mannan conjugates were used to stimulate PBMCs isolated from human donors and IL-6 cytokine release measured by ELISA.

[2] = tested on: MART-1-specific CD8 T cells; assay: Priming and recall of MART-1-specific T cell responses (intracellular IFNγ); format: cell-based, human; settings: PBMC and MoDC from donors BC28 and BC29, 20 μg/ml
Description: MoDC at 2×10^5/ml (for 1:20 MoDC:T cell) in complete AB medium were added to a 24 well plate (1 ml per test condition) followed by protein or >1000 kDa oxidized mannan conjugate (10-20 μg/ml). Four hours later, 4×10^6 CD14 depleted PBMC were added to the wells in 1 ml complete AB medium. After 3 days, 25 U/ml IL-2, 10 ng/ml IL-7 and 10 ng/ml IL-15 was added. The T cells were re-stimulated 7-10 days later with 1×10^5 MoDC loaded with antigen. Twenty four hours following re-stimulation, cultures were supplemented with 25 U/ml IL-2 and again 3-4 days after. T cell cultures were typically analysed after 1 or 2 re-stimulations.
For T cell epitope peptides—Peptide loaded T2 cells (2×10^5/well) were prepared by pulsing with an irrelevant peptide (e.g., CAP-1 10 μg/ml or no peptide) and one with the peptide of interest ([…]) for 1 hour in serum free medium with 1.25 μg/ml β2-microglobulin. T2 cells were added at about a 1:5 ratio (4×10^4/well) in 100 μl to the duplicate T cell wells and incubate for 1 hour at 37° C. 5% CO2. […]
PBMC and MoDC from 2 donors (BC28 and BC29) were used for priming with MART-1 and >1000 kDa oxidized mannan conjugates (20 μg/ml) as described in Example 1. After 1 stimulation, analog and native MART-1 peptide-specific T cell responses were measured using pulsed T2 cells (FIG. 51). […]

Row | Molecule | stimulation of IL-6 release by PBMC (in words) ([1]; LOX at 500 μM) | Amount IL-6 (pg/ml), 6 hr ([1]; 6 hr, LOX at 500 μM) | Amount IL-6 (pg/ml), 24 hr ([1]; 24 hr, LOX at 500 μM) [pg/mL] | EC50 ([1]; 6 hr, read-out: EC50 of IL-6, 6 hr) [µM] | EC50 ([1]; 24 hr, read-out: EC50 of IL-6, 24 hr) [µM] | MART-1-specific T cell responses after priming [2] | MART-1-specific T cell responses after priming ([2]; listed as MART-1 >1000 kDa oxidized mannan)
1 | C=CCn1c(=O)n([C@@H]2O[C@H](COC(=O)c3ccc(NN)nc3)[C@@H](O)[C@H]2O)c2nc(N)[nH]c(=O)c21 [LD1, ((2R,3S,4R,5R)-5-(7-allyl-2-amino-6,8-dioxo-1,6,7,8-tetrahydropurin-9-yl)-3,4-dihydroxy-tetrahydrofuran-2-yl)methyl 6-hydrazinylnicotinate] | did not stimulate IL-6 | – | – | – | – | – | –
2 | C=CCn1c(=O)n([C@@H]2O[C@H](CO)[C@@H](O)[C@H]2O)c2nc(N)[nH]c(=O)c21 [LOX, 7-allyl-7,8-dihydro-8-oxo-guanosine] | able to stimulate IL-6 release | failed to induce IL-6 | 10 | > 500 | > 500 | – | –
3 | >1000 kDa oxidized mannan-MART-1: recombinant MART-1 protein linked to >1000 kDa oxidized mannan (conjugate, UniProt Q16655 1-118, looked up, conjugated to >1000 kDa oxidized mannan, recombinant MART-1 protein linked to >1000 kDa oxidized mannan) Melanoma antigen recognized …: MPREDAHFIYGYPKKGHGHSYTTAEEAAGIGILTVILGVLLLIGCWYCRRRNGYRALMDKSLHVGTQCALTRRCPQEGFDHRDSKVSLQEKNCEPVVPNAPPAYEKLSAEQSPPPYSP | – | – | – | – | – | efficiently responded to analog or native MART-1 peptides presented by T2 cells | more efficient in priming than unconjugated protein
